In PMC8841740, “Fluorescent Ligand-Based Discovery of Small-Molecule Sulfonamide Agonists for GPR120” (Frontiers in Chemistry, 2022):
One block for each compound: values may come before it.

What was measured:
[1] = target: T1, GPR120 (Homo sapiens, UniProt Q5NUL3); assay: Preliminary screening of agonists by BRET competition with probe N1; type: binding; set-up: expressed in transfected cells; details: 10 μM compound, probe N1 400 nM
T1 sequence (Q5NUL3 1-361): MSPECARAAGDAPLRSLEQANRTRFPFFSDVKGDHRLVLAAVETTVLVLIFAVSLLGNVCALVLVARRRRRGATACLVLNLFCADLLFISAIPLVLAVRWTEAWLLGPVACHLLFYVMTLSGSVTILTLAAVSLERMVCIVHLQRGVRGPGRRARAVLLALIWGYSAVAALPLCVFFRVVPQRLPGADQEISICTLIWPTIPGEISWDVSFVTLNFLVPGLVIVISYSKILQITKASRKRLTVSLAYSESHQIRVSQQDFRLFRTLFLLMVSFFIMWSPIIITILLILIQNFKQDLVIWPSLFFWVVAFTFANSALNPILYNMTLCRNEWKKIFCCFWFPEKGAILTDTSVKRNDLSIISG
Protocol: HEK293 cells stably transfected with the GPR120-Rluc gene were seeded in a black 96-well plate (100 μl, 2 × 10^4 cells per well). After a 24-h incubation, the medium was removed, probe N1 (400 nM, 50 μl per well) was added, and 10 μM of the compound was added after a 30-min incubation as well. Followed by a 40-min incubation, coelenterazine (final concentration: 10 μM, 50 μl per well) was added to the plate. Afterward, the fluorescence intensity was measured at 450 and 550 nm with the microplate reader after another 10-min incubation.

[2] = target: T2, GPR40 (Homo sapiens, UniProt O14842); assay: GPR40 Ca2+ flow assay in CHO cells with transient GPR40 gene; type: cell-based
T2 construct: expressed in transfected cells; host or cells: CHO (transient)
Protocol: Ca^2+ flow activity was determined in HEK293 cells stably transfecting the GPR120-Rluc gene. After incubating the cells for 24 h, the medium was removed from the plate, and the cells were washed with HBSS buffer (without Ca^2+ and Mg^2+). Subsequently, a 2-μM Fluo-4 AM working solution in HBSS buffer (without Ca^2+ and Mg^2+) was added to the plate (40 μl per well). After incubating the cells for 20 min at 37°C, compound solution at different concentrations in HBSS buffer (per well 160 μl) was added. Followed by a 40-min incubation, the solution was removed from the plate, HEPES buffer (200 μl per well) was added, and the fluorescence intensity was detected using the microplate reader (Ex: 488 nm; Em: 520 nm) ([Watterson et al., 2017]).
Ca^2+ flow activity was determined in CHO cells with transient GPR40 gene by the same method as well, in which the GPR40 agonist TAK875 was used as a positive control.

[3] = target: T1, GPR120; assay: Fluorescence imaging in HEK293 cells (stably transfected with GPR120) and PC-3 cells; type: cell-based; set-up: expressed in transfected cells
Protocol: HEK293 and PC-3 cells were seeded in fluorescent confocal dishes (5 × 10^3 per well). After the cells were iron-walled, the medium was removed from the dishes, the cells were washed once with a serum-free medium, and the probe was added. After incubating the cells for 10 min, the confocal dishes were observed by an inverted fluorescence microscope.

[4] = target: T1, GPR120; assay: BRET activity test (β-arrestin-2 recruitment, GPR120-YFP / β-arrestin-2-Rluc in HEK293 cells); type: cell-based; set-up: host or cells: HEK293 (transfected with both plasmids)
Protocol: GPR120-YFP and β-arresting-2-Rluc plasmids were transfected into HEK293 cells. After a 24-h incubation, the cells were seeded in a black 96-well plate (100 μl, 20,000 cells per well). Followed by a 24-h incubation, the solution was removed from the plate, and compounds with different concentrations (100 μl per well) and coelenterazine (10 μM, 100 μl per well) were added, followed by the fluorescence intensity was measured at 460 and 520 nm with the microplate reader ([Christiansen et al., 2016]; [Hill et al., 2018]).

[5] = system: db/db mice; assay: Glucose tolerance test in db/db mice; type: in vivo
Protocol: On the last day of the dosing cycle, the fasting blood glucose of mice was measured (without food and water for 6 h), and glucose solution (100 mg/kg) was injected. The blood glucose was measured at […] (5, 10, 30, 60, and 120 min). Finally, the area under the curve was analyzed with SPSS 24 software.

[6] = target: T1, GPR120; assay: GPR120 Ca2+ flow assay in HEK293 cells stably transfecting the GPR120-Rluc gene; type: cell-based; set-up: expressed in transfected cells
Protocol: Ca^2+ flow activity was determined in HEK293 cells stably transfecting the GPR120-Rluc gene. After incubating the cells for 24 h, the medium was removed from the plate, and the cells were washed with HBSS buffer (without Ca^2+ and Mg^2+). Subsequently, a 2-μM Fluo-4 AM working solution in HBSS buffer (without Ca^2+ and Mg^2+) was added to the plate (40 μl per well).

[7] = system: GPR120; assay: Bias of agonists (Gq versus β-arrestin2 pathway); type: cell-based; details: reference GSK137647A pathways P1 Gq, P2 β-arrestin2
From the text: The bias was quantified by Eq. 1, in which β is the bias factor, Emax is the maximum effect produced by the agonist, and Pl and P2 represents the Gq and β-arrestin2 signal pathway, respectively.
Formula 1: β=log((Emax,P1/EC50,P1EC50,P2/Emax,P2)lig×(Emax,P2/EC50,P2EC50,P1/Emax,P1)ref) (1)

[8] = Weight changes of db/db mice during four weeks of administration; type: in vivo
Protocol: (§1) All animal studies were approved by the Ethics Committee and IACUC of Cheeloo College of Medicine, Shandong University, and were conducted in compliance with European Guidelines for the Care and Use of Laboratory Animals. After adaptive feeding for 10–15 days, the db/db mice were divided into positive control group (30 mg/kg), low content compound group (10 mg/kg), high content compound group (30 mg/kg), and negative control group (the same volume dosing solvent). These mice were administrated by gavage once a day (administration volume, 20 ml/kg) for four consecutive weeks. During the administration period, the fasting blood glucose (without food and water for 6 h) was measured twice a week by using a blood glucose meter. The blood glucose level was measured for four consecutive weeks. The data was processed with Graphpad 8.2 software ([Cox et al., 2017]; [Zhang et al., 2017]).

[9] = system: db/db mice; assay: Fasting blood glucose in db/db mice after 4 weeks of administration; type: in vivo; details: gavage once a day
Protocol: as §1

[10] = target: T1, GPR120; assay: BRET competitive binding experiment with probe N1; set-up: expressed in transfected cells; details: probe N1 400 nM, read-out: pKi (N1) (converted)
Protocol: HEK293 cells stably transfected with the GPR120-Rluc gene were seeded in a black 96-well plate (100 μl, 2 × 10^4 cells per well). After the cells were incubated for 24 h, the medium was removed, and probe N1 (400 nM, 50 μl per well) was added. […] Followed by a 40-min incubation, coelenterazine was added to (final concentration: 10 μM, 50 μl per well) the plates. Thenceforward, the fluorescence intensity was measured at 450 and 550 nm with the microplate reader after a 10-min incubation.

[11] = system: FFA1; set-up: method as in Sparks et al., 2014; details: in Figure 3; ref Sparks et al., 2014; cited from earlier work
[12] = system: FFA4; set-up: method as in Sparks et al., 2014; details: in Figure 3; ref Sparks et al., 2014; cited from earlier work
[13] = system: GPR120; details: cited from earlier work
[14] = Optical property of fluorescent probes; type: physicochemical
Protocol: The stocking solution of probes was diluted with acetonitrile to 40 μM, and their ultraviolet absorption spectrum was scanned with an ultraviolet spectrophotometer. Secondly, the excitation and emission spectra of probes at 10, 20, 30, and 40 μM with PBS buffer were measured with a microplate reader. Moreover, the excitation and emission spectrum were recorded in four solvents: MeCN, DMSO, H2O, and EA, respectively.

[15] = target: T1, GPR120; assay: BRET saturation experiment of probe N1; set-up: expressed in transfected cells; details: 15 μM GSK134647A for non-specific binding
Protocol: HEK293 cells stably transfecting the GPR120-Rluc gene were seeded in two black 96-well plates (100 μl, 2 × 10^4 cells per well). After incubating the cells for 24 h, the medium of the non-specific plate was removed, and positive control GSK134647A (15 μM, 50 μl per well) was added into each well. After a 40-min incubation, the medium was removed, and probe N1 was added into two plates (100 μl per well). Followed by incubation for 40 min, coelenterazine was added to the plates (final concentration: 10 μM, 100 μl per well for specific plates; 50 μl per well for non-specific plates). Finally, the fluorescence intensity was measured at 460 and 520 nm with the microplate reader after a 10-min incubation ([Christiansen et al., 2016]).

[16] = target: T1, GPR120; assay: BRET kinetic binding experiment of probe N1; set-up: expressed in transfected cells
Protocol: HEK293 cells stably transfecting the GPR120-Rluc gene were seeded in two entirely black 96-well plates (100 μl, 2 × 10^4 cells per well). After a 24-h incubation, the medium was removed from the non-specific plate, coelenterazine was added to (final concentration: 10 μM, 50 μl per well) the plates, and BRET value was measured after a 5-min incubation. Probe N1 (500 nM, 100 μl per well) was then added, and the BRET value was recorded in a 30-s interval for 6 minutes. Finally, GSK137647A was added (50 μl per well), and BRET value was measured in a 30-s interval for 30 min.

[17] = GPR120, β-arrestin-2 activity test, read-out: pEC50 BRET (converted)
[18] = GPR120, Ca2+ flow, HEK293 GPR120-Rluc cells, read-out: pEC50 Ca2+ assay (converted)

inhibition rate in BRET screening compared with GSK137647A [1]: higher than GSK137647A
EC50 ([2]; CHO cells, GPR40, read-out: FFA1 (Ca2+ pEC50) (converted)): > 50100 nM
fluorescence intensity of N1 after co-incubation (competitive cell imaging) ([3]; N1 0.5 μM and D5 10 μM, HEK293 cells stably transfected with GPR120): decreased significantly
Emax (FFA4 β-arrestin2) ([4]; GSK137647A used as a standard): 1.12
EC50 ([4]; Table 3, read-out: FFA4 (β-arrestin2 pEC50) (converted)): 34.7 nM
melting point: 148 to 149 °C
Emax (FFA4 Ca2+) ([6]; GSK137647A used as a standard): 1.22
EC50 ([6]; Table 3, read-out: FFA4 (Ca2+ pEC50) (converted)): 5.37 nM
Compound: O=S(=O)(Nc1ccc(F)cc1)c1ccc(-c2ccc(OC(F)(F)F)cc2)cc1 [Compound D5, N-(4-Fluorophenyl)-4′-(Trifluoromethoxy)-[1,1′-Biphenyl]-4-Sulfonamide]
reduction of blood glucose AUC0–120 min ([5]; 10 mg/kg): 15.3%
reduction of blood glucose AUC0–120 min ([5]; 30 mg/kg): 30.3%
bias (bias factor, Gq vs β-arrestin2) [7]: relatively biased towards the Gq pathway
weight change ([8]; 10 mg/kg): reached a stable level in the fourth week
weight change ([8]; 30 mg/kg): decreased in the fourth week
fasting blood glucose-lowering level compared with GSK137647A ([9]; 10 mg/kg): the same blood glucose-lowering level
fasting blood glucose-lowering level compared with GSK137647A ([9]; 30 mg/kg): a higher blood-glucose-lowering level

Ki [10]: 110 nM
EC50 [4, 17]: 178 nM
EC50 [6, 18]: 44.7 nM
pEC50 (Ca2+ assay) ([6]; GPR120, Table 2): 7.35 ± 0.59
Compound: COc1ccc(S(=O)(=O)Nc2c(C)cc(C)cc2C)cc1 [GSK137647A, reference compound]
reduction of blood glucose AUC0–120 min ([5]; 30 mg/kg): 19.3%
FFA1 Human pEC50 [11]: < 4.5
FFA4 Human pEC50 [12]: 6.3(0.17)
pEC50 (Literature) [13]: 6.30 ± 0.2^16

Ca2+ response to GPR40 compared with TAK875 ([2]; TAK875 as positive control): much lower than that of TAK875
fluorescence intensity in cell imaging ([3]; HEK293 and PC-3 cells): much greater than that of N2 and N3
EC50 [4, 17]: 427 nM
λabs ([14]; MeCN): 419 nm
Φ (absolute quantum yield) ([14]; PBS): 3.73%
λem ([14]; PBS): 562 nm
λex ([14]; PBS): 444 nm
SS (stokes shift) ([14]; PBS buffer (pH = 7.4)): 118 nm
melting point: 230 to 231 °C
Kd [15]: 1120 ± 600 nM
EC50 [6, 18]: 891 nM
time to reach a stable state of dissociation from GPR120 ([16]; after adding excess GSK137647A): 30 min
Kd ([16]; kinetic binding experiment): 273 nM
time for binding to GPR120 to reach saturation ([16]; probe 500 nM): ≤ 6 min
koff ([16]; probe 500 nM, dissociation by GSK137647A (10 μM), read-out: off-rate koff (converted)): 0.00113 s⁻¹
kon ([16]; probe 500 nM, read-out: on-rate kon (converted)): 4150 M⁻¹ s⁻¹
Compound: Cc1cc(C)c(NS(=O)(=O)c2ccc(NCCN3C(=O)c4cccc5c(N(C)C)ccc(c45)C3=O)cc2)c(C)c1 [Compound N1, 4-((2-(6-(Dimethylamino)-1,3-dioxo-1H-benzo[de]isoquinolin-2(3H)-yl)ethyl)amino)-N-mesitylbenzenesulfonamide]
